The text below walks through data of article PMC4097363, “Trace amines inhibit insect odorant receptor function through antagonism of the co-receptor subunit” (F1000Research, 2014).

The subject of experiment [1] is Agam\Orco + Agam\Or65. Briefly: Odorant and Orco agonist concentration-response, two-electrode voltage clamp in Xenopus oocytes. The class given is cell-based. On the procedure: (§1) Follicle cells were removed by treatment with collagenase B (Boehringer Mannheim) for 2 hours at room temperature. Capped cRNA encoding each OR subunit was generated using mMessage mMachine kits (Ambion). For heteromeric ORs, 25 ng of cRNA encoding each OR subunit was injected into Stage V-VI Xenopus oocytes. For expression of Orco homomers, 50 ng of cRNA was injected. Oocytes were incubated at 18°C in Barth's saline (in mM: 88 NaCl, 1 KCl, 2.4 NaHCO 3, 0.3 CaNO 3, 0.41 CaCl 2, 0.82 MgSO 4, 15 HEPES, pH 7.6, and 150µg/ml ceftazidime) for 2–5 days prior to electrophysiological recording.
(§2) Odorant and Orco ligand induced currents were recorded under two-electrode voltage clamp, using an automated parallel electrophysiology system (OpusExpress 6000A, Molecular Devices). Oocytes were perfused with ND96 (in mM: 96 NaCl, 2 KCl, 1 CaCl 2, 1 MgCl 2, 5 HEPES, pH 7.5). Orco ligands were prepared as 50 or 100 mM stock solutions in DMSO and then diluted into ND96 on the day of the experiment. Odorants were prepared as 100 mM stock solutions in DMSO and then diluted into ND96. Unless otherwise noted, applications were for 60 sec at a flow rate of 1.0 ml/min, with extensive washing in ND96 at 4.6 ml/min between applications. Micropipettes were filled with 3 M KCl and had resistances of 0.2–2.0 MΩ. The holding potential was -70 mV. Current responses, filtered (4-pole, Bessel, low pass) at 20 Hz (-3 db) and sampled at 100 Hz, were captured and stored using OpusXpress 1.1 software (Molecular Devices).
(§3) To screen for agonist activity, oocytes were exposed to 30 sec applications of candidate compounds with 5 min washes between applications ( Figure 2A). For the concentration-response protocol ( Table 1), applications were for 20 sec at a flow rate of 1.65 ml/min. To measure antagonist activity at Orco ( Figure 2B, 2C, Figure 3, Figure 4A and Figure 5A), oocytes were exposed to two 60 sec applications of the synthetic Orco agonist OLC12 (2-((4-Ethyl-5-(4-pyridinyl)-4H-1,2,4-triazol-3-yl)sulfanyl)-N-(4-isopropylphenyl)acetamide) with 4 min washes between applications. Oocytes were then exposed to a 90 sec application of antagonist candidate, immediately followed by a 60 sec co-application of antagonist candidate and OLC12. The current response in the presence of antagonist candidate was compared to the mean of the preceding two responses to OLC12 alone and is presented as a percentage.
(§4) Initial analysis of electrophysiological data was done using Clampfit 9.1 software (Molecular Devices). Curve fitting and statistical analyses were done using Prism 5 (Graphpad). Concentration-inhibition data were fit to the equation: I = I max/(1+ (X/IC 50) ^n) where I represents the current response at a given concentration of inhibitor, X; I max is the maximal response in the absence of inhibitor; IC 50 is the concentration of inhibitor present that still allows a half maximal response from odorant; n is the apparent Hill coefficient. Concentration-response data were fit to the equation: I = I max/(1+(EC 50/X) ^n) where I represents the current response at a given concentration of odorant, X; I max is the maximal response; EC 50 is the concentration of agonist yielding a half maximal response; n is the apparent Hill coefficient. Statistical significance (p<0.05) was assessed using a two-tailed unpaired t test, an F test, or a one-way analysis of variance followed by the Dunnett's post-test, as appropriate.
On the technique in general: In two-electrode clamp one electrode senses voltage and the other passes current.

Another experiment relates to Agam\Orco + Agam\Or31. Briefly: Odorant concentration-response, two-electrode voltage clamp in Xenopus oocytes. The class given is cell-based, Anopheles gambiae. On the procedure:
as §1, §2
To screen for agonist activity, oocytes were exposed to 30 sec applications of candidate compounds with 5 min washes between applications ( Figure 2A). For the concentration-response protocol ( Table 1), applications were for 20 sec at a flow rate of 1.65 ml/min. […]
Initial analysis of electrophysiological data was done using Clampfit 9.1 software (Molecular Devices). […] Statistical significance (p<0.05) was assessed using a two-tailed unpaired t test, an F test, or a one-way analysis of variance followed by the Dunnett's post-test, as appropriate.

The target in experiment [2] is T1, Cqui\Orco (Culex quinquefasciatus, UniProt Q309I4). Kind of experiment: Antagonism of OLC12 activation of Orco in Xenopus oocytes. The class given is cell-based. Conditions: for inhibition at 100 µM: read-out: inhibition of the OLC12 response. As to the method: as §1, §2, §3, §4
T1 sequence (Q309I4 entry or part of it): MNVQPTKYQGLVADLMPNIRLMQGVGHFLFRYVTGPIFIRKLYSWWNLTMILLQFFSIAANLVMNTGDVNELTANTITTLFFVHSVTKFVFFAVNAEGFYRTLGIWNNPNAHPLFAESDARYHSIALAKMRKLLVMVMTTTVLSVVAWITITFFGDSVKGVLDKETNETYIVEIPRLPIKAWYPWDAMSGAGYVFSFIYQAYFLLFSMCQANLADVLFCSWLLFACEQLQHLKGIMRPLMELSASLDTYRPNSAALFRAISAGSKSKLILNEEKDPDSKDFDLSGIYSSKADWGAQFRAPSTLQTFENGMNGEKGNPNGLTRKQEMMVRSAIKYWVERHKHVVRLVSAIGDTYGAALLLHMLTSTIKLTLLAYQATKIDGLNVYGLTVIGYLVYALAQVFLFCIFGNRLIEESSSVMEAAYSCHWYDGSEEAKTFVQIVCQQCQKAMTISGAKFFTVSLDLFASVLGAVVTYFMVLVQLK
In a further experiment the target is T2, Dmel\Orco (Drosophila melanogaster, UniProt Q9VNB5).
T2 sequence (Q9VNB5 1-486): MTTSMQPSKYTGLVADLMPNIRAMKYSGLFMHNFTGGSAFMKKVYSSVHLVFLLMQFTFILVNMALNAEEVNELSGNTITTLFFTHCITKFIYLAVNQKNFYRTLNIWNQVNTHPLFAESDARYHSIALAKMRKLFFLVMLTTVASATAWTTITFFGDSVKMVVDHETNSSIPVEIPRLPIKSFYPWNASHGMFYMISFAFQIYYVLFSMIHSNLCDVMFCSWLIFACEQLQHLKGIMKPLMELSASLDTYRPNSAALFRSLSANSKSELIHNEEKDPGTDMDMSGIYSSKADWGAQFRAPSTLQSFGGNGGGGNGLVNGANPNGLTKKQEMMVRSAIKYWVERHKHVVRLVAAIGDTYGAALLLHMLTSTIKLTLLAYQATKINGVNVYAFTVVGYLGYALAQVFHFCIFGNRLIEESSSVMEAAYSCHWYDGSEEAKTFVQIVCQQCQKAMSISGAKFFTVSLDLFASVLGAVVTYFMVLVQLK
Briefly: Agonist concentration-response, two-electrode voltage clamp in Xenopus oocytes. Type of experiment: cell-based. As to the method:
as §1, §2, §3, §4

Another experiment has as its target Onub\Orco + Onub\Or6 (Ostrinia nubilalis, UniProt D3J5H5). The description is as above. The class given is cell-based. On the procedure: as §1, §2, §3, §4
Experiment [3] addresses T1, Cqui\Orco. The description is as above. Type of experiment: cell-based. As to the method: as §1, §2, §3, §4
For the next experiment, the target named is T3, Agam\Orco (Anopheles gambiae, UniProt Q7QCC7).
T3 sequence (Q7QCC7 1-478): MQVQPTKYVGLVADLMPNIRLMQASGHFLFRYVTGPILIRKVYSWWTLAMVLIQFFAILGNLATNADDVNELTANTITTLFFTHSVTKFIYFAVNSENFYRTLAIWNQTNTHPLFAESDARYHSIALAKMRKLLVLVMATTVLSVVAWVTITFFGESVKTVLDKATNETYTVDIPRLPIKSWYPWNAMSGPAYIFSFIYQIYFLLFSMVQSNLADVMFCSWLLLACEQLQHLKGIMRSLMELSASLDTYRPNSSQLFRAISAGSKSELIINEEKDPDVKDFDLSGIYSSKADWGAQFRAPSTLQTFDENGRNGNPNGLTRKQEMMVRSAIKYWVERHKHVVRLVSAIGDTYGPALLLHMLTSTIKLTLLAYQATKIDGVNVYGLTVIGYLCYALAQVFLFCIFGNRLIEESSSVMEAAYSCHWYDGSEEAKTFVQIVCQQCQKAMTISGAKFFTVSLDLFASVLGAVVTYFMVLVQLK
The description is as above. The class given is cell-based. On the procedure:
as §1, §2, §3, §4

The target in a further experiment is T4, Dmel\Orco + Dmel\Or35a (Drosophila melanogaster, UniProt Q9VNB5).
T4 sequence (Q9VNB5 1-486): T2 sequence (Q9VNB5 1-486)
T4 sequence (Q9V3Q2 1-409 partner): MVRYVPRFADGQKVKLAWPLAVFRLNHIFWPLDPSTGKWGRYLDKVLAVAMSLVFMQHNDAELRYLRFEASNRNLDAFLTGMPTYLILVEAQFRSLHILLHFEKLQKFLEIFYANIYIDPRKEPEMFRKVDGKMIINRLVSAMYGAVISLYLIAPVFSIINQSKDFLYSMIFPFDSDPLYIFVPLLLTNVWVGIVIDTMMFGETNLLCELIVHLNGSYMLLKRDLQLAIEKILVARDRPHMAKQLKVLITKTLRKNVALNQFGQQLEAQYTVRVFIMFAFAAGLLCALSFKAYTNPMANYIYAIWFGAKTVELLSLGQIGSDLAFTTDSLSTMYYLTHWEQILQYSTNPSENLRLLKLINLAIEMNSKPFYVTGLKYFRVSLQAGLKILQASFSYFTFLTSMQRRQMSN
The description is as above. Type of experiment: cell-based. On the procedure: as §1, §2, §3, §4

For experiment [4], the target named is T5, Agam\Orco + Agam\Or65 (Anopheles gambiae, UniProt Q7QCC7).
T5 sequence (Q7QCC7 1-478): T3 sequence (Q7QCC7 1-478)
Briefly: Odorant and Orco agonist concentration-response, two-electrode voltage clamp in Xenopus oocytes. Type of experiment: cell-based. As to the method: as §1, §2, §3, §4

[5] abbreviates: normalizing conc. 30µM geranyl acetate.
Where [6] appears, read: Cqui\Orco activated by 30µM OLC12 (~EC5), 100µM of each amine, mean ± SEM, n = 3-10.

Molecules are shown by their SMILES. Where two headings read alike, the source gives them in different places.

For orientation: EC50 means the concentration needed to bring the measured effect to its halfway point. One may read the inhibition as the change of the read-out against control, counted positive when it falls. One may read the IC50 as the concentration at which inhibition is half-maximal. A low value points to greater potency in that assay.

Chain of Onub\Orco + Onub\Or6 (D3J5H9 entry or part of it): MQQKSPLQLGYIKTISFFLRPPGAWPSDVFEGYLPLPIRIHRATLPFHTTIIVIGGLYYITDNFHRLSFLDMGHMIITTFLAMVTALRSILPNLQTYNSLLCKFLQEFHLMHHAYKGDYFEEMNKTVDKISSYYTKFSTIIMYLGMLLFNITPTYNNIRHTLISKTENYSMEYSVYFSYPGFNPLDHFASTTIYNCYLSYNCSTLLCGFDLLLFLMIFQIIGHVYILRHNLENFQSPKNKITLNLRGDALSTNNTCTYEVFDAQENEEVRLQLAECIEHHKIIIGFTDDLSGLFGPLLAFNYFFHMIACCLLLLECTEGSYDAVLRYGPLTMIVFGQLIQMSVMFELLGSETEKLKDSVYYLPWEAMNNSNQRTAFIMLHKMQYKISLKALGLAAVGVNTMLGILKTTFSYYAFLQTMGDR
Chain of Onub\Orco + Onub\Or6 (D3J5H5 entry or part of it): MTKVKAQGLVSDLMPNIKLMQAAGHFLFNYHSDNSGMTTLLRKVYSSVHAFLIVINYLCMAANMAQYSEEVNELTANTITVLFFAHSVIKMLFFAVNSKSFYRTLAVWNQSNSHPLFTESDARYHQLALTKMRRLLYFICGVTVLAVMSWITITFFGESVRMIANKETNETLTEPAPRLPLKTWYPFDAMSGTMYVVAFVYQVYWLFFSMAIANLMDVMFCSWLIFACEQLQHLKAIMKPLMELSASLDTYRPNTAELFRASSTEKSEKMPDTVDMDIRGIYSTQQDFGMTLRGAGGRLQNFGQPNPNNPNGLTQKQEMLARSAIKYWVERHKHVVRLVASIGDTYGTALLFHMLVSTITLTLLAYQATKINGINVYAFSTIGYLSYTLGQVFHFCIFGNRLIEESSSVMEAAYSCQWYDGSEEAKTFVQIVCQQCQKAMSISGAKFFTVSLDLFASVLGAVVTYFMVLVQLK

As for `C=CCc1ccc(O)c(OC)c1` [Eugenol, eugenol], in the experiment on Agam\Orco + Agam\Or65 [1] (normalized to 1µM eugenol), the “Fit Max” value is recorded as 1.0 ± 0.03. Moreover, in the experiment with Agam\Orco + Agam\Or65 [1] (normalizing conc. 1µM eugenol), the half-maximal effective concentration (EC50) was determined as 0.08 ± 0.01 µM and the “n H (apparent Hill coefficient)” value was found to be 0.9 ± 0.1.
As to `CC(=O)OC/C=C(\C)CCC=C(C)C` [Geranyl Acetate, geranyl acetate], in the experiment on Agam\Orco + Agam\Or31 (normalized to 30µM geranyl acetate), the “Fit Max” value was 2.9 ± 0.3. Moreover, in the experiment on Agam\Orco + Agam\Or31 (setting [5]), the EC50 came out at 65 ± 23 µM and the “n H (apparent Hill coefficient)” value is listed as 1.0 ± 0.3.
Take `NCCc1c[nH]cn1` [Histamine, histamine]: the inhibition at 100 µM on Cqui\Orco [2] was 16 ± 8%.
On to `CCn1c(SCC(=O)Nc2ccc(C(C)C)cc2)nnc1-c1ccncc1` [OLC12, 2-((4-Ethyl-5-(4-pyridinyl)-4H-1,2,4-triazol-3-yl)sulfanyl)-N-(4-isopropylphenyl)acetamide], for which the “Fit Max” value turned out to be 36 ± 4 on Dmel\Orco (normalized to 10µM OLC12); 2.0 ± 0.1 on Onub\Orco + Onub\Or6 (Onub\Orco + Onub\Or6, normalized to 100µM OLC12); 48 ± 2 at Cqui\Orco [3] (normalized to 30µM OLC12); 47 ± 2 at Agam\Orco (normalized to 30µM OLC12); 4.7 ± 0.4 at Dmel\Orco + Dmel\Or35a (normalized to 10µM OLC12); 5.7 ± 0.3 at Agam\Orco + Agam\Or65 [4] (normalized to 30µM OLC12). In addition, the EC50 on Dmel\Orco (normalizing conc. 10µM OLC12) came to 36 ± 4 µM; on Onub\Orco + Onub\Or6, 100 ± 4 µM; on Cqui\Orco [3] (normalizing conc. 30µM OLC12), 95 ± 6 µM; on Agam\Orco (normalizing conc. 30µM OLC12, mean ± SEM) it was 124 ± 9 µM; on Dmel\Orco + Dmel\Or35a (normalizing conc. 10µM OLC12) it was 20 ± 5 µM; on Agam\Orco + Agam\Or65 [4] (normalizing conc. 30µM OLC12), 67 ± 6 µM. For the same compound, the “n H (apparent Hill coefficient)” value at Dmel\Orco (normalizing conc. 10µM OLC12) amounted to 3.9 ± 1.9; at Onub\Orco + Onub\Or6 (Onub\Orco + Onub\Or6, normalizing conc. 100µM OLC12), 2.1 ± 0.2; at Cqui\Orco [3] (normalizing conc. 30µM OLC12), 2.5 ± 0.3; on Agam\Orco (normalizing conc. 30µM OLC12), 2.4 ± 0.3; at Dmel\Orco + Dmel\Or35a (normalizing conc. 10µM OLC12), 1.9 ± 0.8; on Agam\Orco + Agam\Or65 [4] (normalizing conc. 30µM OLC12), 2.0 ± 0.3.
Turning to `NCC(O)c1ccc(O)cc1` (centres unmarked) [Octopamine, octopamine], the “inhibition of the OLC12 response” value at Cqui\Orco [2] (setting [6]) is “inactive”.
In the case of `NCCc1ccc(O)c(O)c1` [dopamine], the “inhibition of the OLC12 response” value on Cqui\Orco [2] is “inactive”.
For the compound `CNC[C@H](O)c1ccc(O)c(O)c1` [epinephrine], the inhibition at 100 µM at Cqui\Orco [2] is 9 ± 3%.
For the compound `CN(C)Cc1c[nH]c2ccccc12` [gramine], at Cqui\Orco [2] (setting [6]), the inhibition at 100 µM was 30 ± 4%.
For the compound `COc1ccc2[nH]cc(CCNC(C)=O)c2c1` [melatonin], the inhibition at 100 µM on Cqui\Orco [2] (setting [6]) was 13 ± 1%.
For the compound `NC[C@H](O)c1ccc(O)c(O)c1` [norepinephrine], the “inhibition of the OLC12 response” value on Cqui\Orco [2] (setting [6]) was “inactive”.
`NCCc1ccccc1` [phenethylamine]: the IC50 on Cqui\Orco [2] amounted to 117 ± 12 µM. Also, the “less potent than tryptamine (IC50 ratio)” value on Cqui\Orco [2] (Cqui\Orco activated by 30µM OLC12) is 25 fold. Moreover, at Cqui\Orco [2] (setting [6]), the inhibition at 100 µM was found to be 41 ± 1%.
In the case of `NCCc1c[nH]c2ccc(O)cc12` [serotonin], the inhibition at 100 µM at Cqui\Orco [2] (setting [6]) came to 23 ± 3%.
